Measurements from PMC5234776, “Study of the Antimicrobial Activity of Tilapia Piscidin 3 (TP3) and TP4 and Their Effects on Immune Functions in Hybrid Tilapia (Oreochromis spp.)” (PLoS ONE, 2017).
Values after ≈ are worked out from the molar mass of the structure shown. Like-named read-outs stand apart in the source and are kept apart here. Peptide text beside a SMILES is read from it.

Legend:
V. vulnificus [1] = test: Time-kill analysis; assay type: cell-based, Vibrio vulnificus; settings: for eradication of bacteria: 60 minutes of exposure at 2×MIC, in words; for time after which V. vulnificus CFUs recovered: peptide at 1xMIC
Experimental: (§1) We determined the MICs of TP3, TP4, kanamycin, and ampicillin against V. vulnificus using a broth microdilution method in accordance with NCCLS guidelines. To measure the killing efficiencies of TP3 and TP4 against V. vulnificus, we prepared TP3 or TP4 solutions at MIC concentrations of 0.5×, 1×, and 2× and these solutions with equal volumes of V. vulnificus (1×10^6 CFU/ml) to each well of a 96-well plate. The plates were incubated at 28°C for 0, 60, 120, 180, 360, 540, 720, or 1440 minutes, and after the incubation period, 50 μL of each bacterial solution were plated on a TCBS plate to obtain viable cell counts. Broth grown in the absence of peptides was used as a negative control. The results were determined using triplicate independent experiments.

V. vulnificus [2] = test: microbe, parasite or virus in culture; assay type: cell-based, Vibrio vulnificus
Experimental: as §1
First, we determined the minimum MICs and minimum bactericidal concentrations (MBCs) of TP3 or TP4 against V. vulnificus.

V. vulnificus [3] = test: microbe, parasite or virus in culture; assay type: cell-based, Vibrio vulnificus; settings: for antimicrobial activity in the pH 2 solution: pH 2, in words
Experimental: (§2) To understand the effects of pH on TP3 or TP4, the reagents were dissolved in ddH2O, 1 M HCl or 1 M NaOH to obtain solutions with different pH values. For the temperature-dependent functional study, the TP3 or TP4 was added to a solution in a water bath (Basic life, model BL3002, Taiwan) and incubated for 60 minutes at different temperatures (40, 60, 80, or 100°C). To evaluate the effects of TP3 and TP4 on pepsin and trypsin function, each peptide was incubated for 10 or 30 minutes with different concentrations of pepsin or trypsin (0.1, 1, or 10 μg/ml), and we determined the MIC values after incubating these solutions with cells at 28°C for 720 minutes, according to a previously described MIC experimental protocol.

V. vulnificus [4] = test: Tilapia survival, peptide injected before V. vulnificus infection (pre-treatment); assay type: in vivo, tilapia (Oreochromis spp.); settings: 7 days
Text: (§3) We obtained tilapia (Oreochromis spp.) from a commercial aquaculture company. The fish body lengths were 4.0±0.6 cm, and body weights were 3.1±0.3 g. The tilapia were maintained in a 2000 liter indoor aquarium at the Marine Research Station, Ilan, Taiwan. To study the efficacy with which TP3 and TP4 protect tilapia against V. vulnificus, we injected the bacteria into the abdominal cavities (peritoneum) of the tilapia using a syringe (29 Gx1/2, Terumo Medical, Elkton, MD, USA); control tilapia were injected with PBS-buffered saline. For the first trial in each group, we used 15 tilapia: (a) group 1 was injected with V. vulnificus (2×10^5 CFU/fish) only; (b) group 2 was injected with PBS only; and (c) group 3 was injected with bacterial cells (2×10^5 CFU/fish) combined with a mixture containing both TP3 and TP4 peptides (at 0.1, 1, 10, or 20 μg/fish) that had been incubated for 60 minutes at 28°C. Next, at 168 hours after the first injection, the tilapia that survived the first co-treatment were again injected with V. vulnificus (2×10^5 CFU/fish). For this second challenge, we chose tilapia with similar body weights and ages that had not been previously treated with V. vulnificus, TP3 or TP4 for the V. vulnificus-only group (control group), and we recorded the survival rate over seven days. For the third trial, each group contained 15 tilapia, each of which was injected with 20, 30, or 40 μg of TP3 or TP4 followed by V. vulnificus (2×10^5 CFU/fish) after 0.5, 1, or 2 hours. The survival rate was recorded after seven days. For the fourth trial, each group contained 15 tilapia, each of which was first injected with V. vulnificus (2×10^5 CFU/fish) and then with 20, 30, or 40 μg of TP3 or TP4 after 0.5, 1, or 2 hours; the survival rate was recorded over seven days. Each experimental group consisted of 15 fish per treatment and three replicates (triplicate groups of 15 fish per treatment). We performed multiple group comparisons by analysis of variance (ANOVA) using SPSS software, and pairwise comparisons of groups were performed using a t-test. Significant differences were indicated as *P<0.05 and **P<0.01.

V. vulnificus [5] = test: In vivo bactericidal activity, bacterial load in tilapia liver; set-up: species or system tilapia (Oreochromis spp.); settings: for V. vulnificus bacterial load in the liver versus infected untreated fish: 20, 30 or 40 μg/fish, co-, pre- or post-treatment, in words; for bacterial clearance of V. vulnificus from the tilapia: after 48 hours
Experimental: Three groups of fish were used for these experiments. The first group was first injected with V. vulnificus (2×10^5 CFU/fish) followed by TP3 or TP4 peptides (20, 30, or 40 μg/fish) 0.5 hours later. A second group was first injected with TP3 or TP4 peptides (20, 30, or 40 μg/fish) and then, 0.5 hours later, with V. vulnificus (2×10^5 CFU/fish). A third group of tilapia was simultaneously injected (co-treated) with V. vulnificus (2×10^5 CFU/fish) and TP3 or TP4 peptides (20, 30, or 40 μg/fish). Liver samples were obtained from each group of tilapia at 3, 6, 9, 12, 24, and 48 hours after the final treatment and the tissues were homogenized in TSB medium before being spread onto TCBS plates. We incubated the plates at 28°C for 12 hours and then counted the number of bacterial colonies.

V. vulnificus [6] = test: Tilapia survival, co-treatment with V. vulnificus and peptide; assay type: in vivo, tilapia (Oreochromis spp.); settings: abdominal cavity, seven days
Text: as §3

V. vulnificus [7] = test: microbe, parasite or virus in culture; assay type: cell-based, Vibrio vulnificus; settings: peptide treated from room temperature to as high as 100°C; 16 hours of incubation
Experimental: as §2, with “[…],” for “and we determined the MIC values after incubating these solutions with cells at 28°C for 720 minutes,”

[8] = peptide 20 μg/fish 0.5 hours before V. vulnificus
[9] = peptide 20 μg/fish 1 hour before V. vulnificus
[10] = peptide 20 μg/fish 2 hours before V. vulnificus
[11] = peptide 30 μg/fish 0.5 hours before V. vulnificus
[12] = peptide 30 μg/fish 1 hour before V. vulnificus
[13] = peptide 30 μg/fish 2 hours before V. vulnificus
[14] = peptide 40 μg/fish 0.5 hours before V. vulnificus
[15] = peptide 40 μg/fish 1 hour before V. vulnificus
[16] = peptide 40 μg/fish 2 hours before V. vulnificus
[17] = co-injection of V. vulnificus and peptide 0.1 μg/fish
[18] = co-injection of V. vulnificus and peptide 1 μg/fish
[19] = co-injection of V. vulnificus and peptide 10 μg/fish
[20] = co-injection of V. vulnificus and peptide 20 μg/fish

`CC[C@H](C)[C@H](NC(=O)[C@H](C)NC(=O)[C@H](CCCCN)NC(=O)CNC(=O)[C@H](C)NC(=O)[C@H](CO)NC(=O)[C@H](Cc1ccccc1)NC(=O)[C@H](CC(C)C)NC(=O)CNC(=O)CNC(=O)[C@@H](NC(=O)[C@@H](NC(=O)[C@H](Cc1c[nH]cn1)NC(=O)[C@H](Cc1c[nH]cn1)NC(=O)[C@@H](NC(=O)[C@@H](N)Cc1ccccc1)[C@@H](C)CC)[C@@H](C)CC)[C@@H](C)CC)C(=O)N[C@@H](Cc1c[nH]cn1)C(=O)N[C@@H](CCCNC(=N)N)C(=O)N[C@@H](CC(C)C)C(=O)N[C@H](C(=O)N[C@@H](CCCNC(=N)N)C(=O)N[C@@H](CCCNC(=N)N)C(=O)N[C@@H](CCCNC(=N)N)C(=O)N[C@@H](CCCNC(=N)N)C(=O)N[C@@H](CCCNC(=N)N)C(=O)O)[C@@H](C)CC` [TP4, tilapia piscidin 4] (H-FIHHIIGGLFSAGKAIHRLIRRRRR-OH) was tested, and the eradication of bacteria (V. vulnificus [1]) was “completely eradicated”, the “time after which V. vulnificus CFUs recovered” value (V. vulnificus [1]) was ~9 h and the MBC (V. vulnificus [2]) was 7.8 µg/mL (≈ 2.62 µM). For the same compound, the “antimicrobial activity in the pH 2 solution” value (V. vulnificus [3]) was “Neither the antibiotics nor TP3 and TP4 showed any antimicrobial activity”, the MBC (V. vulnificus [3]; pH 7) was 7.8 µg/mL (≈ 2.62 µM) and the MIC (V. vulnificus [3]; pH 7) was 7.8 µg/mL (≈ 2.62 µM). The survival rate (V. vulnificus [4]; [8]) was 37.8%, the survival rate (V. vulnificus [4]; [9]) was 4.4% and the survival rate (V. vulnificus [4]; [10]) was 0%. For the same compound, the survival rate (V. vulnificus [4]; [11]) was 31.1%, the survival rate (V. vulnificus [4]; [12]) was 20% and the survival rate (V. vulnificus [4]; [13]) was 2.2%. The survival rate (V. vulnificus [4]; [14]) was 11.1%, the survival rate (V. vulnificus [4]; [15]) was 4.4% and the survival rate (V. vulnificus [4]; [16]) was 4.4%. For the same compound, the “V. vulnificus bacterial load in the liver versus infected untreated fish” value (V. vulnificus [5]) was “significantly reduced”, the “bacterial clearance of V. vulnificus from the tilapia” value (V. vulnificus [5]) was 100% and the survival rate (V. vulnificus [6]; [17]) was 73.3%. For the same compound, the survival rate (V. vulnificus [6]; [18]) was 75%, the survival rate (V. vulnificus [6]; [19]) was 86% and the survival rate (V. vulnificus [6]; [20]) was 88.9%. The “concentration sufficient to eliminate V. vulnificus” value (V. vulnificus [7]) was 31.2 µg/mL.
With `CC[C@H](C)[C@H](NC(=O)[C@H](CC(C)C)NC(=O)[C@H](CO)NC(=O)[C@H](Cc1c[nH]cn1)NC(=O)[C@@H](NC(=O)[C@H](Cc1c[nH]cn1)NC(=O)[C@H](CCCCN)NC(=O)CNC(=O)[C@@H](NC(=O)[C@H](CO)NC(=O)[C@H](Cc1ccccc1)NC(=O)[C@H](CC(C)C)NC(=O)CNC(=O)CNC(=O)[C@@H](NC(=O)[C@@H](NC(=O)[C@H](Cc1c[nH]cn1)NC(=O)[C@H](Cc1c[nH]cn1)NC(=O)[C@@H](NC(=O)[C@@H](N)Cc1ccccc1)[C@@H](C)CC)[C@@H](C)CC)[C@@H](C)CC)C(C)C)[C@@H](C)CC)C(=O)N[C@@H](Cc1c[nH]cn1)C(=O)NCC(=O)N[C@@H](Cc1c[nH]cn1)C(=O)O` [TP3, tilapia piscidin 3] (H-FIHHIIGGLFSVGKHIHSLIHGH-OH) the eradication of bacteria (V. vulnificus [1]) was “completely eradicated”, the “time after which V. vulnificus CFUs recovered” value (V. vulnificus [1]) was “approximately 6 hours” and the MBC (V. vulnificus [2]) was 62.5 µg/mL (≈ 24.4 µM). For the same compound, the “antimicrobial activity in the pH 2 solution” value (V. vulnificus [3]) was “Neither the antibiotics nor TP3 and TP4 showed any antimicrobial activity”, the MBC (V. vulnificus [3]; pH 7) was 62.5 µg/mL (≈ 24.4 µM) and the survival rate (V. vulnificus [4]; [8]) was 13.3%. It also gave a survival rate (V. vulnificus [4]; [9]) of 2.2%, a survival rate (V. vulnificus [4]; [10]) of 2.2% and a survival rate (V. vulnificus [4]; [11]) of 28.9%. The survival rate (V. vulnificus [4]; [12]) was 11.8%, the survival rate (V. vulnificus [4]; [13]) was 8.9% and the survival rate (V. vulnificus [4]; [14]) was 26.7%. The survival rate (V. vulnificus [4]; [15]) was 8.9%, the survival rate (V. vulnificus [4]; [16]) was 4.4% and the “V. vulnificus bacterial load in the liver versus infected untreated fish” value (V. vulnificus [5]) was “significantly lower”. For the same compound, the “bacterial clearance of V. vulnificus from the tilapia” value (V. vulnificus [5]) was 100%, the survival rate (V. vulnificus [6]; [17]) was 0% and the survival rate (V. vulnificus [6]; [18]) was 0%. For the same compound, the survival rate (V. vulnificus [6]; [19]) was 73.3%, the survival rate (V. vulnificus [6]; [20]) was 95.3% and the “concentration sufficient to eliminate V. vulnificus” value (V. vulnificus [7]) was 250 µg/mL.
